In patent US8153593B2, “Transglutaminase inhibitors and methods of use thereof” (The Board of Trustees of the Leland Stanford Junior …, priority 2003, dated 2012):

Experiments:
[1] = biological target: T1, recombinant human tissue transglutaminase (Homo sapiens, UniProt P21980); assay: tTGase inhibition assay, residual activity by glutamate dehydrogenase coupled assay; format: biochemical; settings: dihydroisoxazoles, Table 1
T1 construct: made in house
T1 sequence (P21980 1-687): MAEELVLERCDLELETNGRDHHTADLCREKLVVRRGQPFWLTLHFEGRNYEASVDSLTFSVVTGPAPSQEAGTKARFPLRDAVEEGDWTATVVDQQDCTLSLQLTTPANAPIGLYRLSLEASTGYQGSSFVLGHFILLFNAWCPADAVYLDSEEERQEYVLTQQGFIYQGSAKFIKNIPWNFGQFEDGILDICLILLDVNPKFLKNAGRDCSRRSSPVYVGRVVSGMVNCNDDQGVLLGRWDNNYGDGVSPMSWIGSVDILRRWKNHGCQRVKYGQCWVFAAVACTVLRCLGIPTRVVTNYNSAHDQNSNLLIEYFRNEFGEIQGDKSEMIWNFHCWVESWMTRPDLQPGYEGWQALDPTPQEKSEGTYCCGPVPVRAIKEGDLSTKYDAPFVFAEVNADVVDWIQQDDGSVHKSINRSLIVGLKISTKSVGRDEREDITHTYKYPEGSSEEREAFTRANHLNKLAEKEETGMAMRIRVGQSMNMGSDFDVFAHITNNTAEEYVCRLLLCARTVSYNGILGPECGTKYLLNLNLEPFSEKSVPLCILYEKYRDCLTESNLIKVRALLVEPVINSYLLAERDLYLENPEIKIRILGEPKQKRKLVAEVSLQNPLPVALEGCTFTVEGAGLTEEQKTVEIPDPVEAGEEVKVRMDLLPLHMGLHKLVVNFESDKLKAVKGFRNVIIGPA

DBT cells = assay: Clonogenic radiosensitizer assay; format: cell-based, murine
Description: FIG. 2: KCC009 as a radiosensitizer. Cultured DBT cells were treated with radiation alone (3.2 Gy) (left) or radiation plus 0.5 mM KCC009 (right), and plated on soft agar to evaluate cell viability.
In addition to evaluating the chemosensitizing potential of KCC009, this compound's potential as a radiosensitizer was also evaluated. For this clonogenic assays were used to measure colony formation after a single radiation treatment. The studies were performed in triplicate with varying doses of XRT and number of cells plated. […] A representative photo of a clonogenic assay plate treated with X-ray alone compared with a plate pre-treated with 0.5 mM KCC009 plus X-ray is shown in FIG. 2.

[2] = system: IOMM-Lee meningioma cells; assay: Meningioma cell sensitization to radiation, TG2-fibronectin Western blot; format: cell-based; settings: 0.5 mM KCC009
Description: FIG. 4: Top left: control IOMM meningioma cells; Top right: IOMM cells exposed to 20 Gy radiation; Bottom left: IOMM cells exposed to 0.5 mM KCC009 and 20 Gy radiation.
FIG. 5: Western blot analysis of lysates from IOMM cells treated with KCC009 and/or BCNU. Lysates were immunoprecipitated with anti-fibronectin antibodies, and the Western blots were probed with anti-TG2 antibodies. Lanes (left to right): Control, KCC009 only, BCNU only, KCC009+BCNU. KCC009 and BCNU were used at concentrations of 0.5 mM and 6.25 μM, respectively. Disappearance of TG2 from lanes treated with KCC009 illustrates loss of association of TG2 with the extracellular matrix.
To verify the therapeutic utility of KCC009 against meningiomas, IOMM-Lee meningioma cells were treated with 20 Gy of radiation with and without KCC009. […] Similar data was also obtained when KCC009 was used in combination with BCNU.

B16 mouse melanoma cells = assay: Melanoma cell treatment with KCC009 and/or BCNU; format: cell-based; settings: 24 h, 1 mM KCC009 alone or with 6.25 μM BCNU
Description: FIG. 6A-6D: Photomicrographs of B16 (mouse melanoma cells) after 24 h treatment with KCC009 and/or BCNU. A) Control; B) 1 mM KCC009 only; C) 6.25 μM BCNU only; D) KCC009+BCNU combination.
Activity of KCC009 against melanomas: Melanomas are cancers of the neural crest-derived cells that provide pigmentation to skin and other tissues. No current treatments substantially enhance patient survival once metastasis has occurred.

[3] = Preliminary pharmacokinetic and toxicity studies; settings: mice

For `O=C(N[C@@H](Cc1ccc(O)cc1)C(=O)NCC1CC(Br)=NO1)OCc1ccccc1` (stereo partly shown) [Compound 59], the kinh [1] was 0.86 min⁻¹, the kinh/Ki [1] was 2000 min^−1M^−1 and the “enhancement of cell death in response to radiation” value (DBT cells; 0.5 mM KCC009, 3.2 Gy X-ray) was “two orders of magnitude”. For the same molecule, the “effect of KCC009 alone on cell viability” value (DBT cells; at corresponding concentrations, no radiation) was “does not affect cell viability”, the sensitization to radiation ([2]; 20 Gy radiation) was “dramatically sensitized meningioma cells to radiation” and the “association between TG2 and fibronectin” value ([2]; fibronectin immunoprecipitate, anti-TG2 Western blot) was “loss of association between TG2 and fibronectin”. For the same molecule, the “sensitivity of melanoma cells” value (B16 mouse melanoma cells) was “sensitive”, the oral bioavailability [3] was “reasonable oral bioavailability” and the serum half-life [3] was “short”. For the same molecule, the toxicity [3] was “low toxicity”.
